One experiment has as its system MCF-7/ADR cells. Briefly: MTT assay, doxorubicin-resistant cells. The settings on record: Homo sapiens, NCI/ADR-RES, 72 h treatment, n = 3, read-out: IC50 (µM ± SD) MCF-7/ADR. It counts as cell-based. As to the method:
MCF-7 (human breast adenocarcinoma), A2780 (human ovarian cancer) and HCT116 (human colorectal carcinoma), and MRC-5 (normal foetal lung fibroblast) cell lines were bought from the ATCC and were cultured in flasks which were incubated at 37 °C in an atmosphere of 5% CO2, 95% air, and 100% relative humidity, to maintain continuous logarithmic growth. MCF-7, A2780, and HCT116 were maintained in RPMI-1640 media (100 U/mL penicillin, 100 µg/mL streptomycin, and 10% foetal bovine serum, Gibco, Carlsbad, CA). MRC-5 cells were maintained in EMEM (100 U/mL penicillin, 100 µg/mL streptomycin, and 10% foetal bovine serum, Gibco, Carlsbad, CA). Doxorubicin (5 μg/mL, for three months) added for RPMI-1640 media containing MCF7 cells was used to develop doxorubicin-resistant MCF7/ADR cells. All cancer and normal cell lines were cultured according to our previous report. Cells were used within 10–20 passages and were checked for mycoplasma every 6 months, by measuring the bioluminescence (Myco Alert sample detection kit; Lonza, Basel, Switzerland) using the multiplate reader (Synergy HT, BioTek, Winooski, VT).
The MTT assay was used to measure the cytotoxicity and growth inhibitory activities and cytotoxicity of the new compounds according to our previous report[13]^,[17]. Cells from flasks of 70–80% confluency were separately seeded in 96-well flat-bottom microculture plates (Nalgene-Nunc, Thermo Fisher Scientific, Roskilde, Denmark) at a density of 3 × 10^3 cells (MCF-7, A2780, and MRC-5), 1 × 10^4 cells (HCT116), to a volume of 180 μL/well of culture medium. A Neubauer haemocytometer was used for cell counting. Cells were incubated at 37 °C overnight to allow attachment to the wells. The final concentrations of each compound in wells were: 0–50 μM in 200 μL of media (DMSO 0.1%). Lapatinib (Cayman, Ann Arbor, MI) was used as a positive control at the same final concentrations. […] Cytotoxicity of the new compounds was calculated after treatment of cancer/normal cell lines for 72 h. The absorbance of the reduced MTT was determined using a microplate reader A570 nm. […]
Background: Formazan colour is commonly taken as a measure of viable cells.

A further experiment deals with MCF-7 cells. Put plainly: Annexin V-FITC/PI apoptosis assay. Type of experiment: cell-based, human. The following applies: 0.1 μM, 24 h; for % Cell number, Early apoptosis / % Cell number, Late apoptosis / % Cell number, Live cells / % Cell number, Necrosis: n = 3. As to the method: The ability of compounds 16a,b,d to induce apoptotic changes in MCF-7 cells was determined by Annexin V-FITC/PI staining according to the previous report[13]^,[18]^,[19]. Additionally, the morphological changes in MCF-7 cells were examined by microscope. Following treatment with the test compounds at 0.1 µM for 24 h, the cells were stained with annexin V and PI. The determination of necrotic, early/late apoptotic changes were performed by flow cytometer (FC500, Beckman Coulter, Miami, FL).
The cytotoxic activity of our previously reported pyrrolizine-5-carboxamide 9a was mediated by the induction of apoptosis in MCF-7 cells[13]^,[19]. […] The cancer cells were treated with the test compounds (0.1 μM) for 24 h. The induction of apoptosis in MCF-7 cells by the selected compounds was investigated using annexin V fluorescein isothiocyanate (FITC)/propidium iodide (PI) staining assay. The assay procedures were the same as those applied in the previous report. Compound 16a increased apoptosis (early and late events) in MCF-7 cells to 19% compared to 1% in the control. Moreover, compound 16b caused a significant increase of MCF-7 apoptotic cells which was similar to the effect of compound 16a.

The target of the next experiment is T1, CDK-2 (Homo sapiens, UniProt P24941).
T1 construct: purchased Promega, Madison, WI
Briefly: CDK-2 inhibitory assay (ADP-Glo). It counts as biochemical. The settings on record: three determinations, read-out: IC50 (μM) ± SEM CDK-2.

The target of another experiment is T2, porcine tubulin (Sus scrofa, UniProt P02550+P02554).
T2 construct: purchased Cytoskeleton Inc., Denver, CO BK011P
Briefly: Tubulin polymerisation fluorescence-based assay. The following applies: 5 μM, 37 °C, 60 min; qualitative. It counts as biochemical. As to the method: The effect of compounds 16a,b,d on tubulin polymerisation was measured in vitro using tubulin polymerisation fluorescence-based assay (cytoskeleton, cat. BK011P, https://www.cytoskeleton.com/bk011p). The assay was performed following the previous report[22] and according to the manufacturer’s instructions. Briefly, 2 mg/mL porcine tubulin was dissolved in buffer 1 (80 mM PIPES, 2 mM MgCl2, 0.5 mM EGTA pH 6.9, 10 µM fluorescent reporter, 1 mM GTP, 15% glycerol) to a final concentration of […]. Then tubulin solution was transferred to a pre-warmed 96-well plate that contained the test compounds 16a,b,d (5 μM), paclitaxel (3 μM), CaCl2 (0.5 μM), and control buffer. The polymerisation of tubulin was monitored as fluorescence at 37 °C for 60 min. Relative fluorescence units (RFU) were determined at 360 nm for excitation and at 460 nm for emission using the Varioskan Flash spectral scanning multimode reader (Thermo Fisher Scientific, Roskilde, Denmark) at a reading speed of 1 cycle/min.
In the current study, the new compounds were designed bearing the trimethoxy phenyl moiety aiming to obtain new cytotoxic agents that can interfere with tubulin polymerisation in cancer cells. […] In this assay, light scattering by microtubules which is directly proportional to the concentration of the microtubule polymer was used as a measure of tubulin polymerisation. The study was performed using a fluorescence-based tubulin polymerisation assay kit (Cytoskeleton Inc., Denver, CO; Cat # BK011P) following the manufacturer’s instructions (https://www.cytoskeleton.com/bk011p) and according to the previous report.
Paclitaxel (3 μM) was used as a tubulin polymerisation enhancer (positive control, enhancer), while calcium chloride (CaCl2, 0.5 μM) was used as a positive control (inhibitor) as per the manufacturer’s instructions (https://www.cytoskeleton.com/pdf-storage/datasheets/bk011p.pdf). The vehicle was also used to evaluate the polymerisation when tubulin is incubated in the absence of the test compound. The effect of the selected compounds (5 μM) on tubulin polymerisation was evaluated and compared with those of the positive control. The results are represented in Figure 8.

Each structure is given as a SMILES string. Values joined by “and” are separate entries in the source; they are usually repeats but may differ in a detail not shown here. Equal entries are not always repeated.

T2 sequence (P02550 whole entry): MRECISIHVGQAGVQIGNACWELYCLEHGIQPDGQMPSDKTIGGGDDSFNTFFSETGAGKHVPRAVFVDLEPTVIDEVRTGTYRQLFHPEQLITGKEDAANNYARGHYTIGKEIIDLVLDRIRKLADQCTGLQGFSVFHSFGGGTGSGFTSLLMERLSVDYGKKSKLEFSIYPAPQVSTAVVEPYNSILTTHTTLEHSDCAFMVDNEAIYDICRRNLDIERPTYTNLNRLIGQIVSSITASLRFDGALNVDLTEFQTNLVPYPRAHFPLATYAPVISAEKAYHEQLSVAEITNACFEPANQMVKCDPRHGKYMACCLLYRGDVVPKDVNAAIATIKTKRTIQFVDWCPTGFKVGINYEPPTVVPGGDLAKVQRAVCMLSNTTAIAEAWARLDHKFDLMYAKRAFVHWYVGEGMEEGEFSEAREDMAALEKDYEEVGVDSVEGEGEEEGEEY
T2 sequence (P02554 whole entry): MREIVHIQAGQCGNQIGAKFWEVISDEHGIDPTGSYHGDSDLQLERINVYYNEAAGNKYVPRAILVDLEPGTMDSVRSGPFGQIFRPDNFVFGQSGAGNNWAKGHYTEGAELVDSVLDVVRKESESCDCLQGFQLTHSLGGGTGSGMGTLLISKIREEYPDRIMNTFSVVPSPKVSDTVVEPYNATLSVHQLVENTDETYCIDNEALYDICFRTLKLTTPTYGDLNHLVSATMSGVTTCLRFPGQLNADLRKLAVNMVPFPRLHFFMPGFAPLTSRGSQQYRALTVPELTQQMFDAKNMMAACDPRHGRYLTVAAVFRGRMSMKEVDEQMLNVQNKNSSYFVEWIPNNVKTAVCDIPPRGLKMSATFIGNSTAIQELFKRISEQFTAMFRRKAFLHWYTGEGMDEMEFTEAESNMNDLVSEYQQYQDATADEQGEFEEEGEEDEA
Description for CDK-2: The assay was done according to the manufacturer’s instructions and as described in the previous report[21].

Consider `COc1cc(C(=O)Nc2c(C#N)c3n(c2C(=O)Nc2ccccc2)CCC3)cc(OC)c1OC` [16a, 7-Cyano-N-phenyl-6-(3,4,5-trimethoxybenzamido)-2,3-dihydro-1H-pyrrolizine-5-carboxamide], for which the IC50 in the experiment on MCF-7/ADR cells turned out to be 1.57 ± 0.04 µM. For the same compound, in the experiment on MCF-7 cells, the “% Cell number, Early apoptosis” value was determined as 8.40 ± 0.87%; the “% Cell number, Late apoptosis” value stood at 10.70 ± 1.06%; the “% Cell number, Live cells” value is 77.40 ± 1.39%; the “% Cell number, Necrosis” value is 3.50% and 3.50 ± 0.37%. In addition, the “apoptosis (early and late events)” value with MCF-7 cells (control 1%) is listed as 19%. Moreover, the IC50 at CDK-2 came out at 0.086 ± 0.016 µM. The “effect on tubulin polymerisation” value at porcine tubulin was “weak”.
For `COc1cc(C(=O)Nc2c(C#N)c3n(c2C(=O)Nc2ccc(C)cc2)CCC3)cc(OC)c1OC` [16b, 7-Cyano-N-(p-tolyl)-6-(3,4,5-trimethoxybenzamido)-2,3-dihydro-1H-pyrrolizine-5-carboxamide], in the experiment on MCF-7/ADR cells, the IC50 was determined as 6.26 ± 0.71 µM. For the same compound, in the experiment on MCF-7 cells, the “% Cell number, Early apoptosis” value was 6.22 ± 0.22%; the “% Cell number, Late apoptosis” value is listed as 13.01 ± 1.02%; the “% Cell number, Live cells” value is 75.00 ± 2.90%; the “% Cell number, Necrosis” value is 7.11% and 7.11 ± 0.80%. Also, the IC50 on CDK-2 was 0.265 ± 0.021 µM. Moreover, on porcine tubulin, the “effect on tubulin polymerisation” value is “moderate inhibitory activity”.
On to `COc1cc(C(=O)Nc2c(C#N)c3n(c2C(=O)Nc2ccc(Cl)cc2)CCC3)cc(OC)c1OC` [16d, N-(4-Chlorophenyl)-7-cyano-6-(3,4,5-trimethoxybenzamido) -2,3-dihydro-1H-pyrrolizine-5-carboxamide], for which the IC50 with MCF-7/ADR cells was determined as 0.52 ± 0.066 µM. Also, in the experiment with MCF-7 cells, the “% Cell number, Early apoptosis” value worked out at 7.50 ± 0.95%; the “% Cell number, Late apoptosis” value was 19.94 ± 1.30%; the “% Cell number, Live cells” value is 71.99 ± 2.88%; the “% Cell number, Necrosis” value is 2.51% and 2.51 ± 0.45%. Moreover, at CDK-2, the IC50 stood at 0.113 ± 0.017 µM. In addition, the “effect on tubulin polymerisation” value at porcine tubulin is “moderate inhibitory activity”.

The values are drawn from publication PMC8221158, “Novel pyrrolizines bearing 3,4,5-trimethoxyphenyl moiety: design, synthesis, molecular docking, and biological evaluation as potential multi-target cytotoxic agents” (Journal of Enzyme Inhibition and Medicinal Chemistry, 2021).
